Read-outs that look alike come from different tables or passages of the source.
Legend:
17β-HSD1 = biological target: T1, 17β-HSD1 (Homo sapiens, UniProt P14061); experiment: Inhibition of 17β-HSD1 in T-47D intact cells (E1 into E2); format: cell-based; conditions: T47D; for inhibition at 1 µM: read-out: Inhibition (1 μM); for inhibition at 0.01 µM: read-out: Inhibition % (0.01 μM)
T1 construct: endogenous in cells; host or cells: T-47D
T1 sequence (P14061 1-328): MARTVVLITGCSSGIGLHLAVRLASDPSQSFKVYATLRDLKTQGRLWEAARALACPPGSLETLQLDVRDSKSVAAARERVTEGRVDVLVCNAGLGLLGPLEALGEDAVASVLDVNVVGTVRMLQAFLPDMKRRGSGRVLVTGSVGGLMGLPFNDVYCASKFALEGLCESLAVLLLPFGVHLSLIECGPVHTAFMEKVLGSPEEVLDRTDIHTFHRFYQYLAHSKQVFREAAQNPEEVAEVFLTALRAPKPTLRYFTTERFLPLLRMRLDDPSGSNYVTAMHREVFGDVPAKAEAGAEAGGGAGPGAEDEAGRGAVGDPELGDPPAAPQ
Procedure: T-47D cells were seeded in a 24-well plate (3000 cells/well) in medium supplemented with insulin (50 ng/mL) and 5% dextran-coated charcoal treated FBS rather than 10% FBS to remove remaining hormones. […] Each inhibitor was assessed in triplicate. After incubation, the culture medium was removed and labelled steroids (E1 and E2) extracted with 1 mL of diethyl ether. The organic phases were separated and evaporated to dryness using nitrogen. Residues were dissolved in dichloromethane and dropped on silica gel thin layer chromatography plates (EMD Chemicals Inc., Gibbstown, N.J., USA) and eluted with a toluene/acetone (4:1) solvent system. Substrate [^14C]-E1 and metabolite [^14C]-E2 were identified by comparison with reference steroids and quantified using a Storm 860 system (Molecular Dynamics, Sunnyvale, Calif., USA).
T-47D cells were seeded in a 24-well plate (3000 cells/well) in 990 μL of medium supplemented with insulin (50 ng/mL) and 5% dextran-coated charcoal-treated FBS, which was used rather than untreated 10% FBS, to remove the remaining steroid hormones. […] The final concentration of ethanol in the well was adjusted to 0.1%. Additionally, 5 μL of a solution of [^14C]-estrone (American Radiolabeled Chemicals, Inc., St. Louis, Mo., USA) was added to obtain a final concentration of 60 nM. […] After incubation, the culture medium was removed and labeled steroids (E1 and E2) were extracted with 1 mL of diethyl ether. The organic phases were evaporated to dryness with nitrogen. Residues were dissolved in dichloromethane and dropped on silica gel thin layer chromatography plates (EMD Chemicals Inc., Gibbstown, N.J., USA) and eluted with toluene/acetone (4:1) as solvent system. Substrate [^14C]-E1 and metabolite [^14C]-E2 were identified by comparison with reference steroids (E1 and E2) and quantified using the Storm 860 system (Molecular Dynamics, Sunnyvale, Calif., USA).

MCF-7 cells = experiment: Estrogenic activity in MCF-7 cells; on Estrogenicity (0.1 μM): key: — = no; + = weak; ++ = medium to strong; on Estrogenicity (1.0 μM): key: — = no; + = weak; ++ = medium to strong; format: cell-based, human; conditions: 7 days; for Estrogenicity (1.0 μM) / Estrogenicity (0.1 μM): growth of estrogen-starved MCF-7 cells; for estrogenic activity on MCF-7 cells (FIG. 1): concentrations up to 5 μM
Procedure: MCF-7 cells were seeded with medium supplemented with insulin (50 ng/mL) and 5% dextran-coated charcoal treated FBS rather than 10% FBS to remove remaining hormones. Aliquots (100 μL) of the cell suspension were seeded in 96-well plates (3000 cells/well). […] Cells were grown either in the absence or presence of the compounds over a period of 7 days. Quantification of cell growth was determined by using the CellTiter 96®Aqueous Solution Cell Proliferation Assay (Promega, Nepean, ON, Canada) following the manufacturer's instructions. To determine the proliferative (estrogenic) activity, the cells were grown in the absence (control fixed as 100%) or presence of the tested compounds at the indicated concentrations.

[1] = tested on: ovariectomized (OVX) mice; experiment: In vivo estrogenic activity (uterotrophic assay) in OVX mice; set-up: species or system mouse; conditions: for increase in uterine weight vs. control group: 100 μg/kg s.c. BID, 7 days
Procedure: The mice were fed rodent chow and tap water ad libitum. The animals were ovariectomized (OVX) under isoflurane-anaesthesia via bilateral flank incisions and randomly assigned to groups (5 animals by group). Mice in the OVX control group received the vehicle alone (8% ethanol-0.4% methylcellulose) during the 7-day period. The possible estrogenic activity of tested compounds was evaluated after their administration by subcutaneous (s.c.) injection [1, 10 and 100 μg/kg, s.c., twice daily (BID)] as suspension in 8% ethanol-0.4% methylcellulose to OVX female mice for 7 days. On day 8, the mice were sacrificed by cervical dislocation. The uteri and vagina were rapidly removed, freed from fat and connective tissue and weighed. Results are the means±SEM of 5 mice per group.

17β-HSD3 [2] = biological target: T2, 17β-HSD3 (Homo sapiens, UniProt P37058); experiment: Inhibition of 17β-HSD3 in homogenated HEK-293 cells; format: biochemical
T2 construct: expressed in transfected cells; host or cells: HEK-293 (homogenate)
T2 sequence (P37058 1-310): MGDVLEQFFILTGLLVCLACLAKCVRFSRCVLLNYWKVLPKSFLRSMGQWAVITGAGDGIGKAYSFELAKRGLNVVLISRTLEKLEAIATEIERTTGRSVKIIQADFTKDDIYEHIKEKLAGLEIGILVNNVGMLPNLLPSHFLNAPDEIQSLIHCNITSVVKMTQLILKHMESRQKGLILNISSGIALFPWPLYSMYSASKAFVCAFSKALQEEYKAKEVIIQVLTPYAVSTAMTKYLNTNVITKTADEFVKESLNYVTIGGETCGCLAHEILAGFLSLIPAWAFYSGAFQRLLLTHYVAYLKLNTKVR

17β-HSD3 [3] = biological target: T2, 17β-HSD3; experiment: Inhibition of 17β-HSD3 in intact HEK-293 cells; format: cell-based; conditions: HEK293, 1 h, read-out: Intact cells (%) (0.1 μM), Table 4; 0.1 μM
[4] = tested on: androgen-sensitive (AR+) Shionogi cells; experiment: Proliferative (androgenic) activity on androgen-sensitive Shionogi cells; format: cell-based; conditions: for cell proliferation, % of basal: basal (control) 100%
Procedure: The proliferative (androgenic) activity was determined using androgen-sensitive Shionogi cells following a known literature procedure.^54 Inhibitors and reference compounds were tested at two concentrations (0.1 and 1.0 μM). The androgenicity was reported as % cell proliferation (versus the control). The basal cell proliferation (control) was fixed at 100%.

[5] = Table 2 (17β-HSD1), [14C]-E1 60 nM, T-47D intact cells, 0.1 μM, read-out: Inhibition (0.1 μM)
[6] = Table 2 (17β-HSD1), [14C]-E1 60 nM, T-47D intact cells, 1 μM
[7] = [14C]-E1 (60 nM) into [14C]-E2, T-47D intact cells
[8] = [14C]-E1 (60 nM) into [14C]-E2, T-47D intact cells, 0.1 μM, read-out: Inhibition % (0.1 μM)

In the case of `C[C@]12CC[C@@H]3c4ccc(F)cc4CC[C@H]3[C@@H]1C[C@H](Cc1cccc(C(N)=O)c1)[C@@H]2O` [Compound 57, 3-{[(16β,17β)-3-fluoro-17-hydroxyestra-1(10),2,4-trien-16-yl]methyl}benzamide], the inhibition at 0.1 µM (17β-HSD1; read-out: Inhibition (0.1 μM)) is reported as 48%, the inhibition at 1 µM (17β-HSD1) is reported as 50% and the “Estrogenicity (1.0 μM)” value (MCF-7 cells) is reported as “+”.
`C[C@]12CC[C@@H]3c4ccc(CC(=O)O)cc4CC[C@H]3[C@@H]1C[C@H](Cc1cccc(C(N)=O)c1)[C@@H]2O` [Compound 31, [(16β,17β)-16-(3-carbamoylbenzyl)-17-hydroxyestra-1(10),2,4-trien-3-yl]acetic acid] was tested, and the inhibition at 0.1 µM (17β-HSD1; [5]) was 12%, the inhibition at 1 µM (17β-HSD1; [6]) was 29% and the “Estrogenicity (1.0 μM)” value (MCF-7 cells) was “+”.
For `C[C@@]12CC[C@@H]3c4ccc(O)cc4CC[C@H]3[C@@H]1CC[C@@H]2O` [18-epi-17β-E2 (3), (13α,17β)-estra-1(10),2,4-triene-3,17-diol], the “increase in uterine weight vs. control group” value (“increase” below) [1] was 1.5 fold and the uterotrophic activity ([1]; uterus and vagina, OVX mice) was “no significant uterotrophic activity”.
For `C[C@@]12CC[C@@H]3c4ccc(O)cc4CC[C@H]3[C@@H]1CC[C@H]2O` [18-epi-17α-E2 (4), (13α,17α)-estra-1(10),2,4-triene-3,17-diol], the “increase” value [1] was 2.6 fold.
`CNC(=O)c1ccc2c(c1)CC[C@@H]1[C@@H]2CC[C@]2(C)[C@@H](O)[C@@H](Cc3cccc(C(N)=O)c3)C[C@@H]12` [Compound 41d, (16β,17β)-16-(3-carbamoylbenzyl)-17-hydroxy-N-methylestra-1,3,5(10)-triene-3-carboxamide] was tested, and the inhibition at 0.1 µM (17β-HSD1; read-out: Inhibition (0.1 μM)) was 3%, the inhibition at 1 µM (17β-HSD1) was 5% and the “Estrogenicity (1.0 μM)” value (MCF-7 cells) was “+”.
Work on `C[C@]12CC[C@@]3(C[C@@H]1CC[C@@H]1[C@@H]2CC[C@]2(C)C(=O)CC[C@@H]12)CN(Cc1ccccc1)C(=O)O3` [Compound 17a, (3R,5S,8R,9S,10S,13S,14S)-3′-benzyl-10,13-dimethyltetradecahydro-2′H spiro[cyclopenta[α]phenanthrene-3,5′-[1,3]oxazolidine]-2′,17(2H)-dione] yielded an inhibition at 0.01 µM (17β-HSD3 [2]; read-out: Homo (%) (0.01 μM), Table 4, 0.01 μM) of 21%, an inhibition at 0.1 µM (17β-HSD3 [2]; read-out: Homo (%) (0.1 μM), Table 4, 0.1 μM) of 86% and an inhibition at 1 µM (17β-HSD3 [2]; read-out: Homo (%) (1.0 μM), Table 4, 1.0 μM) of 93%. For the same molecule, the inhibition at 0.1 µM (17β-HSD3 [3]) was 44% and the “proliferative (androgenic) effect” value ([4]; 0.1 and 1 μM) was “did not stimulate the proliferation of AR^+ cells”.
With `C[C@]12CC[C@@H]3c4ccc(C(=O)O)cc4CC[C@H]3[C@@H]1C[C@H](Cc1cccc(C(N)=O)c1)[C@@H]2O` [Compound 36, (16β,17β)-16-(3-carbamoylbenzyl)-17-hydroxyestra-1,3,5(10)-triene-3-carboxylic acid] the inhibition at 0.1 µM (17β-HSD1; [5]) was 5%, the inhibition at 1 µM (17β-HSD1; [6]) was 8% and the “Estrogenicity (1.0 μM)” value (MCF-7 cells) was “++”.
`C[C@]12CC[C@@H]3c4ccc(B(O)O)cc4CC[C@H]3[C@@H]1C[C@H](Cc1cccc(C(N)=O)c1)[C@@H]2O` [Compound 46, [(16β,17β)-16-(3-carbamoylbenzyl)-17-hydroxyestra-1(10),2,4-trien-3-yl]boronic acid] was tested, and the inhibition at 0.1 µM (17β-HSD1; [5]) was 39%, the “Estrogenicity (0.1 μM)” value (MCF-7 cells) was “++” and the “Estrogenicity (1.0 μM)” value (MCF-7 cells) was “++”.
For `C[C@]12CC[C@@H]3c4ccc(N)cc4CC[C@H]3[C@@H]1C[C@H](Cc1cccc(C(N)=O)c1)[C@@H]2O` [Compound 50, 3-{[(16β,17β)-3-amino-17-hydroxyestra-1,3,5(10)-trien-16-yl]methyl}benzamide], the inhibition at 0.1 µM (17β-HSD1; read-out: Inhibition (0.1 μM)) was 35%, the inhibition at 1 µM (17β-HSD1) was 43% and the “Estrogenicity (1.0 μM)” value (MCF-7 cells) was “+”.
In the case of `C[C@]12CC[C@@H]3c4ccc(C(N)=O)cc4CC[C@H]3[C@@H]1C[C@H](Cc1cccc(C(N)=O)c1)[C@@H]2O` [Compound 61, (16β,17β)-16-(3-carbamoylbenzyl)-17-hydroxyestra-1,3,5(10)-triene-3-carboxamide], the inhibition at 0.1 µM (17β-HSD1; [5]) is reported as 3%, the inhibition at 1 µM (17β-HSD1; [6]) is reported as 23% and the “Estrogenicity (1.0 μM)” value (MCF-7 cells) is reported as “++”.
With `C[C@]12CC[C@@H]3c4ccc(CCO)cc4CC[C@H]3[C@@H]1CC(Cc1cccc(C(N)=O)c1)[C@@H]2O` (stereo partly drawn) [IV, 3-{[(17β)-17-hydroxy-3-(2-hydroxyethyl)estra-1(10),2,4-trien-16-yl]methyl}benzamide] the inhibition at 0.1 µM (17β-HSD1; [5]) was 19%, the inhibition at 1 µM (17β-HSD1; [6]) was 57% and the inhibition at 0.01 µM (17β-HSD1; [7]) was 7%. For the same molecule, the inhibition at 0.1 µM (17β-HSD1; [8]) was 17%, the “estrogenic activity on MCF-7 cells (FIG. 1)” value (MCF-7 cells) was “completely removed any estrogenic activity” and the “Estrogenicity (0.1 μM)” value (MCF-7 cells) was “+”. The “Estrogenicity (1.0 μM)” value (MCF-7 cells) was “++”.
With `C[C@]12CC[C@@H]3c4ccc(CN)cc4CC[C@H]3[C@@H]1C[C@H](Cc1cccc(C(N)=O)c1)[C@@H]2O` [Compound 39, 3-{[(16β,17β)-3-(aminomethyl)-17-hydroxyestra-1,3,5(10)-trien-16-yl]methyl}benzamide] the inhibition at 0.1 µM (17β-HSD1; read-out: Inhibition (0.1 μM)) was 35%, the inhibition at 1 µM (17β-HSD1) was 73% and the “Estrogenicity (0.1 μM)” value (MCF-7 cells) was “++”. For the same molecule, the “Estrogenicity (1.0 μM)” value (MCF-7 cells) was “++”.
With `C[C@]12CC[C@](O)(Cc3ccccc3)C[C@@H]1CC[C@@H]1[C@@H]2CC[C@]2(C)C(=O)CC[C@@H]12` [CS-213, 3β-benzyl-3α-hydroxy-5α-androstan-17-one, reference compound] the “cell proliferation, % of basal” value ([4]; 0.1 μM) was 225% and the “cell proliferation, % of basal” value ([4]; 1 μM) was 396%.
`C[C@]12CC[C@@H]3c4ccc(O)cc4CC[C@H]3[C@@H]1CC[C@H]2O` [17α-E2 (2), 17α-estradiol] was tested, and the “increase” value [1] was 3.6 fold.
`C[C@]12CC[C@@H]3c4ccc(CO)cc4CC[C@H]3[C@@H]1C[C@H](Cc1cccc(C(N)=O)c1)[C@@H]2O` [II, 3-{[(16β,17β)-17-hydroxy-3-(hydroxymethyl)estra-1,3,5(10)-trien-16-yl]methyl}benzamide] showed an inhibition at 0.1 µM (17β-HSD1; [5]) of 56%, an inhibition at 1 µM (17β-HSD1; [6]) of 73% and an inhibition at 0.01 µM (17β-HSD1; [7]) of 14%. The inhibition at 0.1 µM (17β-HSD1; [8]) was 37%, the “estrogenic activity on MCF-7 cells (FIG. 1)” value (MCF-7 cells) was “significant estrogenic activity” and the “Estrogenicity (1.0 μM)” value (MCF-7 cells) was “+”.

— US11072632B2, “Inhibitors of 17β-HSD1, 17β-HSD3 and 17β-HSD10” (UNIVERSITÉ LAVAL, priority 2011, dated 2021)
